Legend:
Format in all cases: cell-based
[1] = tested on: ternary complex of FKBP12 and DCAF1; test: co-immunoprecipitation of DCAF1 with HA-FKBP12 in HEK293T cells (ternary complex); conditions: 5 μM, 2 h
Method: (§1) (A) Left, western blots showing effects of YT47R and YT47S on the immunoprecipitation (IP) of FLAG-DCAF1-WT or FLAG-DCAF1-C1113A with HA-FKBP12 in HEK293T cells co-expressing these proteins. Cells were treated with YT47R or YT47S (5 μM) for 2 h in the presence of MG132 (10 μM) prior to lysis and IP with an anti-HA antibody and western blotting for the indicated proteins (DCAF1, FKBP12, and ubiquitinated protein). Right, bar graphs quantifying DCAF1 (top) and ubiquitination (Ub) (bottom) in the indicated IP groups. (B) Left, western blots showing effects of YT47R and YT47S on the IP of endogenous DCAF1 with HA-FKBP12 in HEK293T cells expressing HA-FKBP12. Cells were treated with YT47R or YT47S (5 μM) for 2 h in the presence of MG132 (10 μM) prior to lysis and IP with an anti-HA antibody and western blotting for the indicated proteins (DCAF1, FKBP12). Right, bar graph quantifying DCAF1 in the indicated IP groups. For (A, B), data are mean values±SEM for three independent experiments. Statistical significance was calculated with unpaired two-tailed Student's t-tests comparing YT41R/YT47R- and DMSO-treated cells. **P<0.01, ****P<0.0001. (C) MS-ABPP quantification of IA-DTB labeling of the indicated cysteines in DCAF1 from FLAG-DCAF1-WT-expressing HEK293T cells treated with the indicated concentrations of YT47R (3 h) relative to cells treated with DMSO. Data represent average values±SEM from four independent experiments. Statistical significance was calculated with unpaired two-tailed Student's t-tests comparing compound to DMSO treated cells. *P<0.1.
Finally, we investigated whether electrophilic PROTACs induce a stable ternary complex of FKBP12 with DCAF1 and promote FKBP12 ubiquitination. […] A ternary complex was not observed in cells expressing the DCAF1-C1113A mutant (FIG. 6A), supporting that YT47R induces this complex through site-specifically reacting with C1113. […] In considering possible reasons why this ternary complex formation with endogenous DCAF1 was insufficient to support the degradation of recombinantly expressed FKBP12 (FIG. 4A), we speculate that our current PROTACs (YT41R, YT47R) may require further improvements in cellular properties to enable robust targeted protein degradation mediated by physiological concentrations of DCAF1.

[2] = biological target: T1, HA-FKBP12 (Homo sapiens, UniProt P62942); test: ubiquitination of immunoprecipitated HA-FKBP12 in HEK293T cells
T1 construct: expressed in transfected cells; host or cells: HEK293T
Method: as §1, with “Cells were treated with YT47R or YT47S (5 μM) for 2 h in the presence of MG132 (10 μM) prior to lysis and IP with an anti-HA antibody and western blotting for the indicated proteins (DCAF1, FKBP12).” left out, “For (A, B), data are mean values±SEM for three independent experiments.” left out, “Data represent average values±SEM from four independent experiments.” left out, “*P<0.1. […]” for “*P<0.1.”

[3] = biological target: T2, C1113 of recombinantly expressed DCAF1 (Homo sapiens, UniProt Q9Y4B6); test: MS-ABPP in FLAG-DCAF1-WT-expressing HEK293T cells; conditions: 5 μM, 3 h
T2 construct: expressed in transfected cells; host or cells: HEK293T
Method: as §1, with “Cells were treated with YT47R or YT47S (5 μM) for 2 h in the presence of MG132 (10 μM) prior to lysis and IP with an anti-HA antibody and western blotting for the indicated proteins (DCAF1, FKBP12).” left out, “For (A, B), data are mean values±SEM for three independent experiments.” left out, “Data represent average values±SEM from four independent experiments.” left out, “*P<0.1. […]” for “*P<0.1.”

T1 sequence (P62942 whole entry): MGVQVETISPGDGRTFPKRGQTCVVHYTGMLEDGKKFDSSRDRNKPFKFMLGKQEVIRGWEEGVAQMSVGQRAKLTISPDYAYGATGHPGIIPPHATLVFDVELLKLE
T2 sequence (Q9Y4B6 whole entry): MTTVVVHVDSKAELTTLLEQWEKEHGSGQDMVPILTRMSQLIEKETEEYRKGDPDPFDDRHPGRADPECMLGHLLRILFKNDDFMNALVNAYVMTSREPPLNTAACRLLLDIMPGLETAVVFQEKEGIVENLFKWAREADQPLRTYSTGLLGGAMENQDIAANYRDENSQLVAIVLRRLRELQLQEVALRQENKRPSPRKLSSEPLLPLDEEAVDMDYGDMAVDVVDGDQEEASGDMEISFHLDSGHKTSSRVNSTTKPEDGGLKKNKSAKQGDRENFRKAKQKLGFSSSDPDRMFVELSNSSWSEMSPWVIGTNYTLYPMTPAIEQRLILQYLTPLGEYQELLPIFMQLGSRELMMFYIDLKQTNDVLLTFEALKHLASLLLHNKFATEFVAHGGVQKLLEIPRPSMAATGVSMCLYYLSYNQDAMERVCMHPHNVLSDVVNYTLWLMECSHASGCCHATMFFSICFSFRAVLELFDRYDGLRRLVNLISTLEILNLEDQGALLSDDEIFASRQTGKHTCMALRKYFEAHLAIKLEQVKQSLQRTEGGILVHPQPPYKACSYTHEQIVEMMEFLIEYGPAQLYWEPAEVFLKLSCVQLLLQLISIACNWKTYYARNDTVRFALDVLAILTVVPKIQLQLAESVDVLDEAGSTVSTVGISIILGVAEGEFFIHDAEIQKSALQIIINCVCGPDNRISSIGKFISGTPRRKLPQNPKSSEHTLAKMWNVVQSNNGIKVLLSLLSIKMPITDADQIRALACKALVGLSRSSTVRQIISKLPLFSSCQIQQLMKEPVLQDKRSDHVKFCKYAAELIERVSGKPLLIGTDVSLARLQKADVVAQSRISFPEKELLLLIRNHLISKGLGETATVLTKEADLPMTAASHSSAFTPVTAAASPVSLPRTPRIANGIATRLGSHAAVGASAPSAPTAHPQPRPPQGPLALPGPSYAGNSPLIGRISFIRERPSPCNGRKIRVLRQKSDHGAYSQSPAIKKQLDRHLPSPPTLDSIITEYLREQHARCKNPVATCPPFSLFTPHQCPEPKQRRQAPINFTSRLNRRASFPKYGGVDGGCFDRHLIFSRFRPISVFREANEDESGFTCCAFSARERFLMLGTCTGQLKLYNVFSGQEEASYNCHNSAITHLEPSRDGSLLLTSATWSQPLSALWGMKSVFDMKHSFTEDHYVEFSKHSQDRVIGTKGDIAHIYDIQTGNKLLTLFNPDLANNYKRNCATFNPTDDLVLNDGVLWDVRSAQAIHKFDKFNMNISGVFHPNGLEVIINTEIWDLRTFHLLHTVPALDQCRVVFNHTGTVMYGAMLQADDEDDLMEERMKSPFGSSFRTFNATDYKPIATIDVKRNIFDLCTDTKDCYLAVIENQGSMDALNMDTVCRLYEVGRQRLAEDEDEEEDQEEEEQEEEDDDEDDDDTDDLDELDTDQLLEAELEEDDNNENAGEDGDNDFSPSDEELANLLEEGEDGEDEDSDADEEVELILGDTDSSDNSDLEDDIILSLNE

In the case of C=CC(=O)N1C[C@H](c2ccc(C(=O)NCCOCCOCCOCCNC(=O)COc3cccc([C@@H](CCc4ccc(OC)c(OC)c4)OC(=O)[C@@H]4CCCCN4C(=O)C(=O)C(C)(C)CC)c3)cc2)[C@@H]1C(=O)Nc1cccc2cccnc12 [YT47R], the “ternary complex of FKBP12 and DCAF1” value ([1]; FLAG-DCAF1-WT, in the presence of MG132 (10 μM)) is reported as “clear evidence of a ternary complex”, the “ternary complex of endogenous DCAF1 with HA-FKBP12” value ([1]; HEK293T expressing HA-FKBP12 only, MG132, compared to YT47S or DMSO) is reported as “more robust ternary complex” and the “ternary complex of FKBP12 and DCAF1” value ([1]; cells expressing the DCAF1-C1113A mutant, MG132) is reported as “not observed”. For the same compound, the “polyubiquitination of immunoprecipitated HA-FKBP12” value ([2]; DCAF1-WT-expressing cells, 5 μM, 2 h, MG132) was “robust polyubiquitination”, the FKBP12 ubiquitination ([2]; HEK293T cells that did not express exogenous DCAF1, versus YT47S) was “increased FKBP12 ubiquitination” and the “engagement of C1113 of recombinantly expressed DCAF1” value [3] was about 20%.
